The source of these data is patent US8034931B2, “Process for producing substituted aminoquinazolinone derivative, intermediate therefor, and pest control agent” (Nihon Nohyaku Co., Ltd., priority 2003, dated 2011).

Common to all, as to type: in vivo
Data set [1] relates to White Peach Scale (Pseudaulacaspis pentagona). As to the kind of experiment: Insecticidal effect on white peach scale, sprayed potato tuber (Test Examples 3 and 5). To be noted: 100 ppm liquid chemical, potato tuber with first-instar larvae, fourteen days after the treatment. The text has this: Insecticidal Effect on White Peach Scale (Pseudaulacaspis pentagona)
A preparation containing each compound of the present invention listed in Tables 2 to 4 or each comparative compound as an active ingredient was dispersed in and diluted with water to obtain a 100 ppm liquid chemical. A potato tuber with first-instar larvae of white peach scale as parasites was sprayed with the liquid chemical with a spray gun. Fourteen days after the treatment, the living insects were counted. In the same manner as in Test Example 2, the corrected mortality was calculated and the insecticidal effect was judged.
Insecticidal Effect on White Peach Scale (Pseudaulacaspis pentagona) at a Low Dosage
The same test as in Test Example 3 was carried out except for changing the concentration of the liquid chemical to 30 ppm.

Data set [2] deals with Green Peach Aphid (Myzus persicae). As to the kind of experiment: Insecticidal effect on green peach aphid, foliar spray on potted Chinese cabbage (Test Example 1). To be noted: 500 ppm liquid chemical, sprayed on Chinese cabbage stalks and leaves, six days after the spraying. From the text:
Insecticidal Effect on Green Peach Aphid (Myzus persicae)
A Chinese cabbage plant was planted in each of plastic pots with a diameter of 8 cm and a height of 8 cm, and green peach aphids were propagated on the plant, after which the parasites in each pot were counted. A preparation containing each compound of the present invention listed in Tables 2 to 4 or each comparative compound as an active ingredient was dispersed in and diluted with water to obtain a 500 ppm liquid chemical. The stalks and leaves of the potted Chinese cabbage plants were sprayed with the liquid chemical and air-dried, and then the pots were stored in a greenhouse. Six days after the spraying, green peach aphids parasitic on each Chinese cabbage plant were counted and the control efficacy was calculated by the following equation, whereby the insecticidal effect was judged according to the criterion shown below. Control efficacy=100−{(T×Ca)/(Ta×C)}×100 • Ta: number of parasites before spraying in treated group, • T: number of parasites after spraying in treated group, • Ca: number of parasites before spraying in untreated group, • C: number of parasites after spraying in untreated group.

The test system of data set [3] is Greenhouse Whitefly (Trialeuroddes vaporariorum). As to the kind of experiment: Insecticidal effect on greenhouse whitefly, sprayed tomato leaf (Test Examples 2 and 4). To be noted: 100 ppm liquid chemical, sprayed tomato leaf, 20 adult whiteflies, four days after the inoculation. From the text: Insecticidal Effect on Greenhouse Whitefly (Trialeuroddes vaporariorum)
A preparation containing each compound of the present invention listed in Tables 2 to 4 or each comparative compound as an active ingredient was dispersed in and diluted with water to obtain a 100 ppm liquid chemical. A tomato leaf set in a 20-ml vial with its stalk immersed in water was sprayed with the liquid chemical with a spray gun on a turntable. After air-dryness, the treated leaf was placed in a glass cylinder and inoculated with 20 adult greenhouse whiteflies. After the treatment, the glass cylinder was placed in a greenhouse. Four days after the inoculation, the living insects were counted. The corrected mortality was calculated according to the following equation and the insecticidal effect was judged according to the criterion shown below.
[formula] Criterion for Judgment:
Insecticidal Effect on Greenhouse (Trialeuroddes vaporariorum) at a Low Dosage
The same test as in Test Example 2 was carried out except for changing the concentration of the liquid chemical to 3 ppm.

Each structure is given as a SMILES string.

Consider `CCCCC(=O)N1C(=O)N(N=Cc2cccnc2)Cc2cc(C(F)(C(F)(F)F)C(F)(F)F)ccc21` [compound 12], for which the “Test Example 3: insecticidal effect (corrected mortality)” value (“Test Example 3: insecticidal effect” for short) in data set [1] is given as “A (Corrected mortality 100%)”. Moreover, the “Test Example 1: insecticidal effect (control efficacy)” value (“Test Example 1: insecticidal effect” below) in data set [2] is listed as “A (Control efficacy 100%)”. The “Test Example 2: insecticidal effect (corrected mortality)” value (“Test Example 2: insecticidal effect” for short) in data set [3] is recorded as “A (Corrected mortality 100%)”.

Take `CCC(C)C(=O)N1C(=O)N(N=Cc2cccnc2)Cc2cc(C(F)(C(F)(F)F)C(F)(F)F)ccc21` (stereo not drawn) [compound 13]: in data set [1], the “Test Example 3: insecticidal effect” value was “A (Corrected mortality 100%)”. Moreover, in data set [2], the “Test Example 1: insecticidal effect” value was “A (Control efficacy 100%)”. Also, in data set [3], the “Test Example 2: insecticidal effect” value is given as “A (Corrected mortality 100%)”.

Take `O=C(C1CC1)N1C(=O)N(N=Cc2cccnc2)Cc2cc(C(F)(C(F)(F)F)C(F)(F)F)ccc21` [compound 14]: the “Test Example 3: insecticidal effect” value in data set [1] is reported as “A (Corrected mortality 100%)”. The “Test Example 1: insecticidal effect” value in data set [2] was “A (Control efficacy 100%)”. In addition, the “Test Example 2: insecticidal effect” value in data set [3] was “A (Corrected mortality 100%)”.

`COCC(=O)N1C(=O)N(N=Cc2cccnc2)Cc2cc(C(F)(C(F)(F)F)C(F)(F)F)ccc21` [compound 15]: in data set [1], the “Test Example 3: insecticidal effect” value was “A (Corrected mortality 100%)”. In addition, the “Test Example 1: insecticidal effect” value in data set [2] is “A (Control efficacy 100%)”. The “Test Example 2: insecticidal effect” value in data set [3] is listed as “A (Corrected mortality 100%)”.

As for `COC(=O)N1C(=O)N(N=Cc2cccnc2)Cc2cc(C(F)(C(F)(F)F)C(F)(F)F)ccc21` [compound 16], the “Test Example 3: insecticidal effect” value in data set [1] was “A (Corrected mortality 100%)”. The “Test Example 1: insecticidal effect” value in data set [2] is given as “A (Control efficacy 100%)”. Further, the “Test Example 2: insecticidal effect” value in data set [3] was “A (Corrected mortality 100%)”.

Consider `CCOC(=O)N1C(=O)N(N=Cc2cccnc2)Cc2cc(C(F)(C(F)(F)F)C(F)(F)F)ccc21` [compound 17], for which, in data set [1], the “Test Example 3: insecticidal effect” value was “A (Corrected mortality 100%)”. Besides, the “Test Example 1: insecticidal effect” value in data set [2] was “A (Control efficacy 100%)”. The “Test Example 2: insecticidal effect” value in data set [3] is on record as “A (Corrected mortality 100%)”.

With `CCCOC(=O)N1C(=O)N(N=Cc2cccnc2)Cc2cc(C(F)(C(F)(F)F)C(F)(F)F)ccc21` [compound 18], the “Test Example 3: insecticidal effect” value in data set [1] is recorded as “A (Corrected mortality 100%)”. For the same compound, the “Test Example 1: insecticidal effect” value in data set [2] is “A (Control efficacy 100%)”. In addition, the “Test Example 2: insecticidal effect” value in data set [3] is “A (Corrected mortality 100%)”.

On to `CC(C)OC(=O)N1C(=O)N(N=Cc2cccnc2)Cc2cc(C(F)(C(F)(F)F)C(F)(F)F)ccc21` [compound 19], for which the “Test Example 3: insecticidal effect” value in data set [1] is given as “A (Corrected mortality 100%)”. Also, the “Test Example 1: insecticidal effect” value in data set [2] is reported as “A (Control efficacy 100%)”. Also, the “Test Example 2: insecticidal effect” value in data set [3] was “A (Corrected mortality 100%)”.

Regarding `CCCCOC(=O)N1C(=O)N(N=Cc2cccnc2)Cc2cc(C(F)(C(F)(F)F)C(F)(F)F)ccc21` [compound 20], the “Test Example 3: insecticidal effect” value in data set [1] is recorded as “A (Corrected mortality 100%)”. In addition, in data set [2], the “Test Example 1: insecticidal effect” value is on record as “A (Control efficacy 100%)”. Besides, the “Test Example 2: insecticidal effect” value in data set [3] is “A (Corrected mortality 100%)”.

Turning to `CCC(C)OC(=O)N1C(=O)N(N=Cc2cccnc2)Cc2cc(C(F)(C(F)(F)F)C(F)(F)F)ccc21` (stereo not drawn) [compound 21], in data set [1], the “Test Example 3: insecticidal effect” value is “A (Corrected mortality 100%)”. In addition, the “Test Example 1: insecticidal effect” value in data set [2] was “A (Control efficacy 100%)”. Besides, in data set [3], the “Test Example 2: insecticidal effect” value is on record as “A (Corrected mortality 100%)”.

In the case of `CS(=O)(=O)N1C(=O)N(N=Cc2cccnc2)Cc2cc(C(F)(C(F)(F)F)C(F)(F)F)ccc21` [compound 22], the “Test Example 3: insecticidal effect” value in data set [1] is recorded as “A (Corrected mortality 100%)”. Besides, the “Test Example 1: insecticidal effect” value in data set [2] was “A (Control efficacy 100%)”. Further, the “Test Example 2: insecticidal effect” value in data set [3] is reported as “A (Corrected mortality 100%)”.
